Measurements published in ChEMBL document CHEMBL4028801, “A multifactorial approach to hepatobiliary transporter assessment enables improved therapeutic compound development” (Toxicol Sci, 2013).

Key:
Bile salt export pump = Bile salt export pump (Homo sapiens, UniProt O95342); assay: Inhibition of human BSEP overexpressed in Sf9 cell membrane vesicles assessed as uptake of [3H]-taurocholate in presence of ATP measured after 15 to 20 mins by membrane vesicle transport assay; type: ADME, cell-based
[1] = molecular target: ATP-binding cassette sub-family C member 2 (Homo sapiens, UniProt Q92887); assay: Inhibition of human MRP2 overexpressed in Sf9 cell membrane vesicles assessed as uptake of [3H]-estradiol-17beta-D-glucuronide in presence of ATP and GSH measured after 20 mins by membrane vesicle transport assay
[2] = molecular target: ATP-binding cassette sub-family C member 3 (Homo sapiens, UniProt O15438); assay: Inhibition of human MRP3 overexpressed in Sf9 insect cell membrane vesicles assessed as uptake of [3H]-estradiol-17beta-D-glucuronide in presence of ATP and GSH measured after 10 mins by membrane vesicle transport assay; type: ADME, cell-based
[3] = molecular target: T1, ATP-binding cassette sub-family C member 4 (Homo sapiens, UniProt O15439); assay: Inhibition of human MRP4 overexpressed in Sf9 cell membrane vesicles assessed as uptake of [3H]-estradiol-17beta-D-glucuronide in presence of ATP and GSH measured after 20 mins by membrane vesicle transport assay; type: ADME, cell-based
T1 sequence (O15439 whole entry): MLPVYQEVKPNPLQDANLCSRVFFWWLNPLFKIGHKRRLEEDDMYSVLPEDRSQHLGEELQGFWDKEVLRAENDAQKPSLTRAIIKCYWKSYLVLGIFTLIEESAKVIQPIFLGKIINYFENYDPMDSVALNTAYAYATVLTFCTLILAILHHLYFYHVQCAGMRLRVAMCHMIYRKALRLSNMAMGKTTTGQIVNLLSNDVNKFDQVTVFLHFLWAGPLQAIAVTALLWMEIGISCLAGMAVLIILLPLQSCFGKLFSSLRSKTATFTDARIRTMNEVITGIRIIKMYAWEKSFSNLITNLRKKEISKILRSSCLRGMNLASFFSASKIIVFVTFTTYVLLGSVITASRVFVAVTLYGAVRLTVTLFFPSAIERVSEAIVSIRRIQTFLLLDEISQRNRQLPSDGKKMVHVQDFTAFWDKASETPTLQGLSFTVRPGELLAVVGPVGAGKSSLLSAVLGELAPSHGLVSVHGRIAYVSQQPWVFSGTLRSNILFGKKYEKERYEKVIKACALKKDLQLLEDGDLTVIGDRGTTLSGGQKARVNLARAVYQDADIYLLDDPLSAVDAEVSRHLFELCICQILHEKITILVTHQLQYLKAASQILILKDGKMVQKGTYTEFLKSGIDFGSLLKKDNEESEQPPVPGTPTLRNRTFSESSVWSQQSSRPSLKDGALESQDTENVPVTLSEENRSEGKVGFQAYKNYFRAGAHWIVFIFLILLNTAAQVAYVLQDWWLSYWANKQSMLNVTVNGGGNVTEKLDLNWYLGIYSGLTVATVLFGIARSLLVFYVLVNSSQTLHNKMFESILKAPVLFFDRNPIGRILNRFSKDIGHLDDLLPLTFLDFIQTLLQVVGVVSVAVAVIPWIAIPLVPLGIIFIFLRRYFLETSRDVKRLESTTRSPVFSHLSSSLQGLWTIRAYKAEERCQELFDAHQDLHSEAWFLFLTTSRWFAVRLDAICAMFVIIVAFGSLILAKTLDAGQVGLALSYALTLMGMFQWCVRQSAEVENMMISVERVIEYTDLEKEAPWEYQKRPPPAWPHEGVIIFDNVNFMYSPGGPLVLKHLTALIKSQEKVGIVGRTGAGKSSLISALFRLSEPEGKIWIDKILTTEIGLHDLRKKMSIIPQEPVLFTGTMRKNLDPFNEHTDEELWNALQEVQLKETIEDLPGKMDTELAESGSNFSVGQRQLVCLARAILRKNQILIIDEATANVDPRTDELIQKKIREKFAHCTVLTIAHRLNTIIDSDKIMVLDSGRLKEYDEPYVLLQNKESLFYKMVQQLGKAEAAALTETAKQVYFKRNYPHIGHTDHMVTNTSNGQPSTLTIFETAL

[4] = AUC in human at 1 ug/ml, po QD after 24 hrs; type: ADME, organism-based; set-up: dose 1 ug/ml, time < 24 hr, route oral; conditions: in vivo
Homo sapiens = assay: Drug concentration at steady state in human at 1 ug/ml, po QD after 24 hrs; type: ADME, organism-based; conditions: in vivo
[5] = Ratio of drug concentration at steady state in human at 1 ug/ml, po QD after 24 hrs to IC50 for human BSEP overexpressed in Sf9 insect cells; type: ADME, organism-based
[6] = AUC in human at 5 to 10 mg, po QD after 24 hrs; type: ADME, organism-based; conditions: in vivo
[7] = Drug concentration at steady state in human at 5 to 10 mg, po QD after 24 hrs; type: ADME, organism-based; conditions: in vivo, read-out: Css
[8] = Ratio of drug concentration at steady state in human at 5 to 10 mg, po QD after 24 hrs to IC50 for human BSEP overexpressed in Sf9 insect cells; type: ADME, organism-based; conditions: in vivo
[9] = Ratio of drug concentration at steady state in human at 5 to 10 mg, po QD after 24 hrs to IC50 for human MRP4 overexpressed in Sf9 insect cells; type: ADME, organism-based; conditions: in vivo
[10] = AUC in human at 15 to 60 mg, po QD after 24 hrs; type: ADME, organism-based; conditions: in vivo
[11] = Drug concentration at steady state in human at 15 to 60 mg, po QD after 24 hrs; type: ADME, organism-based; conditions: in vivo, read-out: Css
[12] = Ratio of drug concentration at steady state in human at 15 to 60 mg, po QD after 24 hrs to IC50 for human BSEP overexpressed in Sf9 insect cells; type: ADME, organism-based; conditions: in vivo

ATP-binding cassette sub-family C member 3, sequence (O15438 whole entry): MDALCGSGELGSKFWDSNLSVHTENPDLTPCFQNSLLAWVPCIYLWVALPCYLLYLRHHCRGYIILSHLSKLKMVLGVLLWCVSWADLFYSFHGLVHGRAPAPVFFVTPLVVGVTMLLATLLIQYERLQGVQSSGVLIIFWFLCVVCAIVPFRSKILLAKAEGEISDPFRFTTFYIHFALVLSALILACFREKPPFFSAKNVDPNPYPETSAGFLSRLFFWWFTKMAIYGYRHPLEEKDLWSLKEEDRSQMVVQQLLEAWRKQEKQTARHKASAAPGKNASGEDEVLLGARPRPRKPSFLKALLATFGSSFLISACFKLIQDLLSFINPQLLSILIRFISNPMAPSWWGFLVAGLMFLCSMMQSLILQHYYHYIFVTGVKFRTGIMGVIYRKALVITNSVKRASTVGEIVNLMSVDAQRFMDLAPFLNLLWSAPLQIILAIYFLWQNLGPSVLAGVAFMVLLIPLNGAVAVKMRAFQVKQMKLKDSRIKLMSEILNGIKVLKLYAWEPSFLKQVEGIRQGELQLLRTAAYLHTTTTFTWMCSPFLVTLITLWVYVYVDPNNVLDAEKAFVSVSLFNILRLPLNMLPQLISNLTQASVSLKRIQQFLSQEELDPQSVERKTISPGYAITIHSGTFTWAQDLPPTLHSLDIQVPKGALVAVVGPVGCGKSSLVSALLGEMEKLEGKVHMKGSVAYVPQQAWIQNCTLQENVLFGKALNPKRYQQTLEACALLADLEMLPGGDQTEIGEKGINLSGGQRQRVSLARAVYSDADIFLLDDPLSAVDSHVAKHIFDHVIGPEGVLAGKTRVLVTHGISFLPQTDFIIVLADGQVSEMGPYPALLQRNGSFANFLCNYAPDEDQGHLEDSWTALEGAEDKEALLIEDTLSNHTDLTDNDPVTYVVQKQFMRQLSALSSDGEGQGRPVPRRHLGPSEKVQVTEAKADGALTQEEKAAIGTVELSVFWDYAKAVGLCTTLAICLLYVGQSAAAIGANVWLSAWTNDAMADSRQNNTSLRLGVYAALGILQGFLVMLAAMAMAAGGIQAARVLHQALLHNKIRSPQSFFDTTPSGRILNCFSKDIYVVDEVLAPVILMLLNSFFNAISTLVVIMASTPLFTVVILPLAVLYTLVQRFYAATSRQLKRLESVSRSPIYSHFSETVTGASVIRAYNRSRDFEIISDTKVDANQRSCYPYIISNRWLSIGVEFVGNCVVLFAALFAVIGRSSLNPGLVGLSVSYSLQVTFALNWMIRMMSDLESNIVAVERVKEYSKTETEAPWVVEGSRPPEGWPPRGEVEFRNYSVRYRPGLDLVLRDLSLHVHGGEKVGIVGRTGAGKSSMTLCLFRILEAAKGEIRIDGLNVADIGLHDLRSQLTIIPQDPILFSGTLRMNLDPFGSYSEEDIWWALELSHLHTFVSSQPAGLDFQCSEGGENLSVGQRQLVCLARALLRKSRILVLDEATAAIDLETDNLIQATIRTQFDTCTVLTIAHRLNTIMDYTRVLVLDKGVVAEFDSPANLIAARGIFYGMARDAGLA
Bile salt export pump, sequence (O95342 whole entry): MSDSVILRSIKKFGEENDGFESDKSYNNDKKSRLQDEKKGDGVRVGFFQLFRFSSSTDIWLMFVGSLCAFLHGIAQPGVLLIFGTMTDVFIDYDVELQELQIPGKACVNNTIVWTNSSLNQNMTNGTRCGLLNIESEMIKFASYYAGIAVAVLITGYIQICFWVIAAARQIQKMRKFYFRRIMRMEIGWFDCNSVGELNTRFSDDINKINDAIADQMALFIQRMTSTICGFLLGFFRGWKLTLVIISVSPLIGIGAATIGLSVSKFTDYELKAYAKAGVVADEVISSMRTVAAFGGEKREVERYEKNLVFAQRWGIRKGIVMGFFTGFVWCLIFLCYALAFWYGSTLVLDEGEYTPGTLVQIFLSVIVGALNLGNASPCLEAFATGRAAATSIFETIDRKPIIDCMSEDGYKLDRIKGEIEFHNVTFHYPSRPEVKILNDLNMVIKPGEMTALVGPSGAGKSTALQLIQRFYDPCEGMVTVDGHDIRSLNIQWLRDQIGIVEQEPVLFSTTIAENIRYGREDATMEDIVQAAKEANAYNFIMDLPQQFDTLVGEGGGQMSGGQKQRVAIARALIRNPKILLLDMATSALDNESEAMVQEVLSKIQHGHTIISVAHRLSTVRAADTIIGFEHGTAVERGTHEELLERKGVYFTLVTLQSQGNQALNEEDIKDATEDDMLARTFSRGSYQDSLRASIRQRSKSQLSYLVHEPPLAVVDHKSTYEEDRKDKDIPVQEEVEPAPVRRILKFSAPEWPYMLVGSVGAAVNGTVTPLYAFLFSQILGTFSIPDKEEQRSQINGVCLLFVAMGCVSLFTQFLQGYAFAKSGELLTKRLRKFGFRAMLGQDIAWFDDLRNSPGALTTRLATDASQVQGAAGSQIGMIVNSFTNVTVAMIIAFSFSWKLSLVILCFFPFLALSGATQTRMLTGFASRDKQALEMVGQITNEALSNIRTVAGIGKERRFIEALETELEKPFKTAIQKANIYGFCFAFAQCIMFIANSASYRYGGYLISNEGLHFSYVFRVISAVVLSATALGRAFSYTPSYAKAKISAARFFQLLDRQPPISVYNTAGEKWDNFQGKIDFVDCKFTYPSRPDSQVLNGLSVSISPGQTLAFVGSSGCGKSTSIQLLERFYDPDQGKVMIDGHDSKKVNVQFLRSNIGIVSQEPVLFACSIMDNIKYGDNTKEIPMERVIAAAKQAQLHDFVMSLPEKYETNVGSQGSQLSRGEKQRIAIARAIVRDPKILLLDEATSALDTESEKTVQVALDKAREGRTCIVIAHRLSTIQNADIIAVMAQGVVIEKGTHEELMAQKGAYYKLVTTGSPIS
ATP-binding cassette sub-family C member 2, sequence (Q92887 whole entry): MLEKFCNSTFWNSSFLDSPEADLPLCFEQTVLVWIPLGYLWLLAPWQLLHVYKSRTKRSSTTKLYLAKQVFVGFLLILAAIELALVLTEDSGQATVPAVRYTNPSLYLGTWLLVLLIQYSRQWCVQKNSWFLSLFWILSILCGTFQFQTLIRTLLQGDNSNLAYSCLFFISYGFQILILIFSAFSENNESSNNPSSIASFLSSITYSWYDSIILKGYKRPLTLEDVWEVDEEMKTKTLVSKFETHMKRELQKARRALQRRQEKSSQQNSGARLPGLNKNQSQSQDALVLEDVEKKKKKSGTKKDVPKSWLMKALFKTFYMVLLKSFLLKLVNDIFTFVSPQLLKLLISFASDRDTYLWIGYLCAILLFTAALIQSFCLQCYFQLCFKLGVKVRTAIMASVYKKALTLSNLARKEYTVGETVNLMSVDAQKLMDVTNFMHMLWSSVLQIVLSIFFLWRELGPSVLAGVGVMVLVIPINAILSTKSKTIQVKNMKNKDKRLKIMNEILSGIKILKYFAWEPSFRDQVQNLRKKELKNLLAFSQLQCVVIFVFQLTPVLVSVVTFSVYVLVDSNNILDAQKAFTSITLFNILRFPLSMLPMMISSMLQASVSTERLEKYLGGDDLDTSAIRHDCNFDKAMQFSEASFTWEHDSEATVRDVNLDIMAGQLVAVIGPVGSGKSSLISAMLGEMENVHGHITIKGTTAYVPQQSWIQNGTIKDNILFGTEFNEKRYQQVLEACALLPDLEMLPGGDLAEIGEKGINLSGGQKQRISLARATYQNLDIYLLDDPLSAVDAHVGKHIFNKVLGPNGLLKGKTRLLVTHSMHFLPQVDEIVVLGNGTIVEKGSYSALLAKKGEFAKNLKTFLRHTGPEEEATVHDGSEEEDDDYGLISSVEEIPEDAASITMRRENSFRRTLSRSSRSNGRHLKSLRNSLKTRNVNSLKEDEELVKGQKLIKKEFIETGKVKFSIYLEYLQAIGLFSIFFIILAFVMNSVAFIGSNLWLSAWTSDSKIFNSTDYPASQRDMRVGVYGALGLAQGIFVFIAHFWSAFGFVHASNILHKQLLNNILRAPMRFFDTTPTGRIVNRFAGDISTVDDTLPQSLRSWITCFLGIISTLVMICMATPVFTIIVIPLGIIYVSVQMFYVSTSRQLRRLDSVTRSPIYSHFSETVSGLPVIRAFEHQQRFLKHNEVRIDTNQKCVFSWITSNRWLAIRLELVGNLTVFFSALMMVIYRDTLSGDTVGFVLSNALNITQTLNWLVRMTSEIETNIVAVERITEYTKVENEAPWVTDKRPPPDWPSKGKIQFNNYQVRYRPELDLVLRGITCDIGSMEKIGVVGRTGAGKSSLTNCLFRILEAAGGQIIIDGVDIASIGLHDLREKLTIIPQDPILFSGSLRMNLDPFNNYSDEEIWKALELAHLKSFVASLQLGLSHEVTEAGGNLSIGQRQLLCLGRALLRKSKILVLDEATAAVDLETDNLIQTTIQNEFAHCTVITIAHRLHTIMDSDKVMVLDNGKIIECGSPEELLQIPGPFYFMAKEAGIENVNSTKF

Row | SMILES | IC50 (Bile salt export pump) [µM] | IC50 [1] [µM] | IC50 [2] [µM] | IC50 [3] [µM] | AUC at 24 h [4] [µM·h] | Css (Homo sapiens) [nM] | Ratio [5] | AUC at 24 h [6] [µM·h] | concentration at 24 h [7] [nM] | Ratio [8] | Ratio [9] | AUC at 24 h [10] [µM·h] | concentration at 24 h [11] [nM] | Ratio [12]
1 | C=C1/C(=C\C=C2/CCC[C@]3(C)[C@@H]([C@H](C)CCCC(C)(C)O)CC[C@@H]23)C[C@@H](O)C[C@@H]1O [CALCITRIOL] | 39.7 | > 133 | > 133 | > 133 | 0.002 | 0 | 1.6e-6 | – | – | – | – | – | – | –
2 | CC(=O)O[C@]1(C(C)=O)CC[C@H]2[C@@H]3C[C@H](C)C4=CC(=O)CC[C@]4(C)[C@H]3CC[C@@]21C [MEDROXYPROGESTERONE ACETATE] | 15.7 | > 133 | > 133 | 22.5 | – | – | – | 0.016 | 1 | 0.00004 | 0 | – | – | –
3 | C[C@@H]1CCC[C@H](C)N1NC(=O)c1ccc(Cl)c(S(N)(=O)=O)c1 [CLOPAMIDE] | > 133 | > 133 | > 133 | > 133 | – | – | – | – | – | – | – | – | – | –
4 | C[C@H]1O[C@@H](O[C@H]2[C@@H](O)C[C@H](O[C@H]3[C@@H](O)C[C@H](O[C@H]4CC[C@@]5(C)[C@H](CC[C@@H]6[C@@H]5CC[C@]5(C)[C@@H](C7=CC(=O)OC7)CC[C@]65O)C4)O[C@@H]3C)O[C@@H]2C)C[C@H](O)[C@@H]1O [DIGITOXIN] | 31 | > 133 | > 133 | > 133 | – | – | – | – | – | – | – | – | – | –
5 | C[C@]12CC[C@H](O)CC1=CC[C@@H]1[C@@H]2CC[C@]2(C)C(c3cccnc3)=CC[C@@H]12 [ABIRATERONE] | > 133 | > 133 | > 133 | > 133 | – | – | – | – | – | – | – | – | – | –
6 | C/C(=C\C(=O)OCCCCCCCCC(=O)O)C[C@@H]1OC[C@H](C[C@@H]2O[C@H]2[C@@H](C)[C@H](C)O)[C@@H](O)[C@H]1O [MUPIROCIN] | > 133 | > 133 | > 133 | > 133 | – | – | – | – | – | – | – | – | – | –
7 | CN(C)/N=N/c1[nH]cnc1C(N)=O [DACARBAZINE] | > 133 | > 133 | > 133 | > 133 | – | – | – | – | – | – | – | – | – | –
8 | Cc1ccccc1C(=O)Nc1ccc(C(=O)N2CCCC(O)c3cc(Cl)ccc32)c(C)c1 (stereo not given) [TOLVAPTAN] | 9.99 | > 133 | > 133 | > 133 | – | – | – | – | – | – | – | 9.49 | 396 | 0.04
9 | CCCSc1ccc2nc(NC(=O)OC)[nH]c2c1 [ALBENDAZOLE] | > 133 | > 133 | > 133 | > 133 | – | – | – | – | – | – | – | – | – | –
10 | NCC(CC(=O)O)c1ccc(Cl)cc1 (stereo not given) [BACLOFEN] | > 133 | > 133 | > 133 | > 133 | – | – | – | – | – | – | – | – | – | –
